Measurements: PubChem BioAssay (NCI)
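Cultured in 96-well plates, cells were exposed to test compound for 48 hours across five concentrations. TGI marks complete inhibition of growth.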

Tests used:
Assay in all cases: NCI tumour cell line growth inhibition, 48 h
LOX IMVI melanoma = test system: LOX IMVI melanoma
TK-10 renal = test system: TK-10 renal
A498 renal = test system: A498 renal
SW-620 colon = test system: SW-620 colon
OVCAR-4 ovarian = test system: OVCAR-4 ovarian
HOP-62 NSCLC = test system: HOP-62 NSCLC
NCI-H226 lung = test system: NCI-H226 lung
OVCAR-5 ovarian = test system: OVCAR-5 ovarian
NCI/ADR-RES ovarian = test system: NCI/ADR-RES ovarian
SNB-19 CNS = test system: SNB-19 CNS
IGROV1 ovarian = test system: IGROV1 ovarian
UACC-257 melanoma = test system: UACC-257 melanoma
SNB-75 CNS = test system: SNB-75 CNS
T-47D breast = test system: T-47D breast
CAKI-1 renal = test system: CAKI-1 renal
RPMI-8226 leukemia = test system: RPMI-8226 leukemia
UACC-62 melanoma = test system: UACC-62 melanoma
K-562 leukemia = test system: K-562 leukemia
SK-OV-3 ovarian = test system: SK-OV-3 ovarian
OVCAR-3 ovarian = test system: OVCAR-3 ovarian

SMILES	TGI (LOX IMVI melanoma) [µM]	TGI (TK-10 renal) [µM]	TGI (A498 renal) [µM]	TGI (SW-620 colon) [µM]	TGI (OVCAR-4 ovarian) [µM]	TGI (HOP-62 NSCLC) [µM]	TGI (NCI-H226 lung) [µM]	TGI (OVCAR-5 ovarian) [µM]	TGI (NCI/ADR-RES ovarian) [µM]	TGI (SNB-19 CNS) [µM]	TGI (IGROV1 ovarian) [µM]	TGI (UACC-257 melanoma) [µM]	TGI (SNB-75 CNS) [µM]	TGI (T-47D breast) [µM]	TGI (CAKI-1 renal) [µM]	TGI (RPMI-8226 leukemia) [µM]	TGI (UACC-62 melanoma) [µM]	TGI (K-562 leukemia) [µM]	TGI (SK-OV-3 ovarian) [µM]	TGI (OVCAR-3 ovarian) [µM]
C[C@H](CCC(=O)O)[C@H]1CC[C@H]2[C@@H]3[C@@H](O)C[C@@H]4C[C@H](O)CC[C@]4(C)[C@H]3C[C@H](O)[C@]12C	> 100	> 100	> 100	> 100	> 100	> 100	> 100	> 100	> 100	> 100	> 100	> 100	> 100	> 100	> 100	> 100	> 100	> 100	–	–
COC(=O)c1ccc(NCC2=CC(=O)C=CC2=O)cc1O	37.5	27.9	32.8	> 100	30.3	34.5	44.7	36.9	47	48.3	41.6	30.6	42.9	47.1	32.8	–	30.4	> 100	42.5	24.7
COc1ccccc1N1C(=O)CSC1c1cccc(Oc2ccccc2)c1 (stereo unspecified)	32.4	48.4	36.6	56.6	39.6	45.7	36.9	50.4	46.2	56.1	–	33.6	41.7	58.1	74.5	–	30.1	70.2	> 100	45.1
O=C1C=CC(=O)c2c(O)c(NCCN3CCOCC3)c(Cl)c(O)c21	2.85	> 10	> 10	2.91	3.22	3.72	> 10	–	4.88	3.23	3.72	4.56	3.27	4.51	3.25	–	3.03	7.59	> 10	7.26
Cc1nc(-c2cccnc2)sc1C(=O)CC(=O)C(=O)Nc1cccc(NC(=O)C(=O)CC(=O)c2sc(-c3cccnc3)nc2C)n1	> 100	–	> 100	> 100	> 100	–	> 100	> 100	> 100	> 100	> 100	> 100	> 100	> 100	> 100	> 100	> 100	> 100	> 100	> 100
COc1cc(/C=C2\N=C(c3ccccc3)N(c3nc4ccccc4s3)C2=O)cc(OC)c1OC	> 100	> 100	> 100	> 100	68	> 100	> 100	> 100	62	> 100	> 100	> 100	61	> 100	> 100	16.7	–	> 100	–	60.4
C[C@@H](c1ccccc1)N1C[C@@H](c2ccc3c(c2)OCO3)[C@@H]2C(=O)CCC[C@@H]21	> 100	> 100	59.1	–	> 100	> 100	> 100	> 100	> 100	> 100	> 100	> 100	> 100	> 100	> 100	92.8	52	> 100	> 100	–
C[C@H](CCC(=O)O)[C@H]1CC[C@H]2[C@@H]3[C@H](O)[C@H](O)[C@@H]4C[C@H](O)CC[C@]4(C)[C@H]3CC[C@]12C	> 100	> 100	> 100	> 100	> 100	> 100	> 100	> 100	> 100	> 100	> 100	> 100	> 100	> 100	> 100	> 100	> 100	> 100	–	–
CC1CN=C(N(C(=O)Nc2ccc(Cl)cc2)c2cccc(Cl)c2)S1 (stereo unspecified)	> 100	62.1	91.8	> 100	> 100	> 100	–	> 100	> 100	> 100	> 100	> 100	> 100	> 100	> 100	–	–	–	> 100	> 100
C1=C2C3=[N+](CCCC3)CC2Cc2sccc21 (stereo unspecified)	> 100	> 100	> 100	> 100	> 100	> 100	> 100	> 100	> 100	> 100	> 100	> 100	> 100	> 100	> 100	–	> 100	> 100	> 100	> 100
Cc1ccc(C(=O)C2C=C(c3ccc(C)cc3)SC3C=CCC32)cc1 (stereo unspecified)	39.5	53.3	58.4	29.8	75.7	45.2	66.1	44.4	40.8	> 100	40.1	54.3	–	50.6	42.4	80.1	38.8	> 100	54.3	31.8
CCCCCCCCCCCCCC(=O)OCC(CCS(=O)(=O)O[C@H]1CC[C@@]2(C)C(=CC[C@@H]3C2CC[C@]2(C)C(=O)CCC32)C1)OC(=O)CCCCCCCCCCCCC (stereo partly specified)	> 100	> 100	> 100	> 100	> 100	> 100	–	> 100	> 100	> 100	> 100	> 100	> 100	> 100	> 100	> 100	> 100	> 100	> 100	> 100
C[n+]1c2ccccc2n2c3ccccc3c(NCc3ccco3)c(C#N)c21	3.65	11.3	20.4	4.01	10.7	11.4	16	12	9.55	26.6	–	57.4	6.86	> 28.7	7.36	–	11.7	> 21.1	39.8	> 49.6
